Measurements reported in the RepoRT retention time repository (doi:10.1016/j.foodchem.2021.129757).
Structures can show the parent of a compound that is named as a salt.

Legend:
Conditions in all cases: stereoisomer not certain
[1] = RP, Waters ACQUITY UPLC HSS T3, 100 × 2.1 mm, 50 °C; A: water + 0.1% formic acid, pH 3; B: 30% methanol + 70% acetonitrile + 0.1% formic acid, pH 3; gradient (min/%B) 0/5 1/8 2/15 3/40 4/70 4.5/100 5/100 6.4/100 6.6/5 6.8/5 7/5
[2] = RP, Agilent ZORBAX Eclipse XDB-C18, 100 × 2.1 mm, 1.8 µm, 50 °C, 0.4 mL/min, estimated dead time 0.55 min; A: water + 0.1% formic acid, pH 3; B: methanol + 0.1% formic acid, pH 3; gradient (min/%B) 0/2 10/100 14.5/100 14.51/2 16.5/2
[3] = RP, Waters ACQUITY UPLC BEH C18, 100 × 2.1 mm, 1.7 µm, 65 °C, 0.4 mL/min, estimated dead time 0.55 min; A: water + 0.1% formic acid, pH 3; B: 80% acetonitrile + 20% acetone + 0.1% formic acid, pH 3; gradient (min/%B) 0/0 5/100 5.5/0 6/0
[4] = RP, Waters ACQUITY UPLC HSS T3, 100 × 2.1 mm, 1.8 µm, 30 °C, 0.4 mL/min, estimated dead time 0.55 min; A: water + 0.1% formic acid, pH 3; B: acetonitrile + 0.1% formic acid, pH 3; gradient (min/%B) 0/0 2/0 15/100 22/100 22.1/0 26/0
[5] = RP, Phenomenex Synergi Hydro-RP, 250 × 2 mm, 4 µm, 25 °C, 0.2 mL/min, estimated dead time 2.5 min; A: water + 0.1% formic acid, pH 3; B: acetonitrile + 0.1% formic acid, pH 3; gradient (min/%B) 0/0.5 7/0.5 12/12.5 25/16.3 47/35 48/65 50/65 50.1/0.5
[6] = RP, Agilent ZORBAX RRHD Eclipse Plus C18, 50 × 2.1 mm, 1.8 µm, 30 °C, 0.4 mL/min, estimated dead time 0.28 min; A: water + 0.1% formic acid, pH 3; B: acetonitrile + 0.1% formic acid, pH 3; gradient (min/%B) 0/1 5/10 8/25 9.1/99 10/99 12/99
[7] = RP, Agilent ZORBAX RRHD Eclipse Plus C18, 50 × 2.1 mm, 1.8 µm, 30 °C, 0.4 mL/min, estimated dead time 0.28 min; A: water + 0.1% formic acid, pH 3; B: acetonitrile + 0.1% formic acid, pH 3; gradient (min/%B) 0/1 5/10 8/25 9.1/99 10/99 12/1
[8] = RP, 150 × 2.1 mm, 2.6 µm, 40 °C, 0.35 mL/min, estimated dead time 0.94 min; A: water + 0.1% formic acid, pH 3; B: acetonitrile + 0.1% formic acid, pH 3; gradient (min/%B) 0/0 1/5 7/45 8.5/80 10.5/80 11/5 12/5

SMILES | LC retention time [1] [min] | LC retention time [3] [min] | LC retention time [5] [min] | also measured
CC(C)(CO)C(O)C(=O)NCCC(=O)O (racemic) [DL-Pantothenic acid] | 2 |  |  | LC retention time [2]: 2.42 min
Cn1c(=O)c2[nH]c(=O)[nH]c2n(C)c1=O [1,3-Dimethyluric acid] | 2.01 | 1.45 |  | LC retention time [4]: 7.03 min
Cn1c(=O)[nH]c2[nH]c(=O)[nH]c2c1=O [1-Methyluric acid] | 1.27 | 1.29 |  | 
O=C(O)Cc1ccccc1O [2-Hydroxyphenylacetic acid] | 3.4 |  |  | LC retention time [4]: 9.13 min; LC retention time [2]: 3.82 min
COc1ccccc1C=CC(=O)O [2-Methoxycinnamic acid] |  |  | 50 | 
Cc1ccccc1C(=O)NCC(=O)O [2-Methylhippuric acid] | 3.4 | 1.96 |  | 
O=C(OC1OC(C(=O)O)C(O)C(O)C1O)c1c[nH]c2ccccc12 (configuration not stated) [3-Indole carboxylic acid glucuronide] | 3.36 | 1.89 |  | 
O=C(O)Cc1c[nH]c2ccccc12 [3-Indoleacetic acid] | 3.62 | 2.35 |  | LC retention time [2]: 5 min
O=C(O)C(O)Cc1c[nH]c2ccccc12 (configuration not stated) [3-Indolelactic acid] | 3.53 | 2.14 |  | 
O=S(=O)(O)Oc1c[nH]c2ccccc12 [3-Indoxyl sulfate] | 2.67 | 1.68 |  | 
Cn1c(=O)[nH]c(=O)c2[nH]cnc21 [3-Methylxanthine] | 1.45 | 1.3 |  | 
O=C(O)C(O)Cc1ccccc1 (configuration not stated) [3-Phenyllactic acid] |  |  | 27.2 | 
COc1cccc(C=CC(=O)O)c1 [3-methoxycinnamic acid] |  |  | 49.1 | 
O=C(O)CCc1ccccc1 [3-phenylpropionic acid] |  | 2.78 | 44.5 | 
COc1ccc(C=CC(=O)O)cc1 [4-methoxycinnamic acid] |  |  | 48 | 
O=C(O)Cc1c[nH]c2ccc(O)cc12 [5-Hydroxyindole-3-acetic acid] | 2.86 | 1.61 |  | 
O=C(O)CCCCCCCC(=O)O [Azelaic acid] | 3.63 | 2.33 |  | LC retention time [2]: 5.74 min
Cn1c(=O)c2c(ncn2C)n(C)c1=O [Caffeine] | 3.1 | 1.67 | 21.3 | LC retention time [4]: 8.11 min; LC retention time [2]: 3.67 min
O=C(O)C1OC(Oc2ccccc2O)C(O)C(O)C1O (configuration not stated) [Catechol-O-1-glucuronide] | 2.65 |  |  | LC retention time [6]: 3.09 min; LC retention time [7]: 4.38 min
O=C(O)CC(O)(CC(=O)O)C(=O)O [Citric acid] | 0.67 |  | 6.32 | LC retention time [2]: 1.09 min

SMILES | LC retention time [1] [min] | LC retention time [3] [min] | LC retention time [5] [min] | also measured
CC(O)C1NC(=O)C2CCCN2C1=O (configuration not stated) [Cyclo(Pro-Thr)] | 1.54 | 1.37 |  | 
CC(C)C1NC(=O)C2CCCN2C1=O (configuration not stated) [Cyclo(Pro-Val)] | 3.1 | 1.88 |  | LC retention time [4]: 8.07 min
NCCc1ccc(OS(=O)(=O)O)c(O)c1 [Dopamine 4-O-sulfate] | 0.606 | 1.3 |  | 
NCCc1ccc(O)c(O)c1 [Dopamine] | 0.706 |  |  | LC retention time [4]: 1.3 min
Nc1nc2ncc(CNc3ccc(C(=O)NC(CCC(=O)O)C(=O)O)cc3)nc2c(=O)[nH]1 (configuration not stated) [Folic acid] |  |  | 19 | LC retention time [2]: 3.46 min
CS(=O)CCCC(=NOS(=O)(=O)O)SC1OC(CO)C(O)C(O)C1O (configuration not stated) [Glucoiberin] |  |  | 4.44 | 
C=CCCC(=NOS(=O)(=O)O)SC1OC(CO)C(O)C(O)C1O (configuration not stated) [Gluconapin] |  |  | 12.7 | 
O=S(=O)(O)ON=C(CCc1ccccc1)SC1OC(CO)C(O)C(O)C1O (configuration not stated) [Gluconasturtiin] |  |  | 19.3 | 
CS(=O)CCCCC(=NOS(=O)(=O)O)SC1OC(CO)C(O)C(O)C1O (configuration not stated) [Glucoraphanin] |  |  | 6.23 | 
COc1cc(CCC(=O)O)ccc1O [Hydroferulic acid] |  |  | 28.5 | LC retention time [4]: 9.38 min
O=C(O)CNC(=O)C=Cc1c[nH]c2ccccc12 [Indole-3-acryloylglycine] | 3.56 | 2.13 |  | 
O=C(O)C1OC(Oc2c[nH]c3ccccc23)C(O)C(O)C1O (stereo not drawn) [Indoxyl beta-d-glucuronide] | 2.94 | 1.73 |  | 
O=c1c(OC2OC(CO)C(O)C(O)C2O)c(-c2ccc(O)cc2)oc2cc(O)cc(O)c12 [Kaempferol 3-O-D-galactoside] |  |  | 37.2 | 
c1coc(CNc2ncnc3nc[nH]c23)c1 [Kinetin] | 3.03 | 1.7 |  | 
CC(=O)CCC(=O)O [Levulinic acid] | 1.46 | 1.4 |  | 
O=C(O)c1cccnc1 [Niacin] |  |  | 5.51 | 
Cn1c(=O)[nH]c2ncn(C)c2c1=O [Paraxanthine] | 2.56 | 1.48 |  | LC retention time [4]: 7.53 min; LC retention time [2]: 2.93 min
Cc1ncc(CO)c(C=O)c1O [Pyridoxal] | 2.61 | 0.821 |  | LC retention time [2]: 1.35 min
O=C(O)c1ccc[nH]1 [Pyrrole-2-carboxylic acid] | 2.61 | 1.68 |  | 
O=C(O)CC(=O)OCC1OC(Oc2c(-c3ccc(O)c(O)c3)oc3cc(O)cc(O)c3c2=O)C(O)C(O)C1O (configuration not stated) [Quercetin 3-O-malonylglucoside] |  |  | 37 | 

SMILES | LC retention time [1] [min] | LC retention time [3] [min] | LC retention time [5] [min] | also measured
CC1OC(OCC2OC(Oc3c(-c4ccc(O)c(O)c4)oc4cc(OC5OC(CO)C(O)C(O)C5O)cc(O)c4c3=O)C(O)C(O)C2O)C(O)C(O)C1O (configuration not stated) [Quercetin 3-O-rutinoside-7-O-glucoside] |  |  | 20.6 | 
O=c1c(O)c(-c2ccc(OC3OC(CO)C(O)C(O)C3O)c(O)c2)oc2cc(O)cc(O)c12 (configuration not stated) [Quercetin 4-glucoside] |  |  |  | LC retention time [8]: 6.25 min
CC(=O)OCC1OC(Oc2c(-c3ccc(O)c(O)c3)oc3cc(O)cc(O)c3c2=O)C(O)C(O)C1O (configuration not stated) [Quercetin-3-O-(6-acetylglucoside)] |  |  | 38.8 | 
O=C(O)C1(O)CC(O)C(O)C(O)C1 (configuration not stated) [Quinic acid] | 0.58 |  | 3.21 | LC retention time [4]: 1.05 min
CC1OC(OCC2OC(Oc3c(-c4ccc(O)cc4)oc4cc(OC5OC(C)C(O)C(O)C5O)cc(O)c4c3=O)C(O)C(O)C2O)C(O)C(O)C1O (configuration not stated) [Robinin] |  |  | 31.8 | 
C=CCC(=NOS(=O)(=O)O)SC1OC(CO)C(O)C(O)C1O (configuration not stated) [Sinigrin] |  |  | 5.52 | 
O=C(C=Cc1ccc(O)cc1)OCC1OC(Oc2c(-c3ccc(O)cc3)oc3cc(O)cc(O)c3c2=O)C(O)C(O)C1O (configuration not stated) [Tiliroside] |  |  | 47 | 
O=c1[nH]c(=O)c2[nH]c(=O)[nH]c2[nH]1 [Uric acid] |  |  | 7.67 | 
O=C(O)c1cc(=O)c2cccc(O)c2[nH]1 [Xanthurenic acid] | 2.57 |  |  | 
COc1ccc(CC(=O)O)cc1OC [homoveratric acid] |  |  | 32.5 | 
COc1cccc(C(=O)O)c1 [m-Anisic acid] |  |  | 40.2 | 
Cc1cccc(OS(=O)(=O)O)c1 [m-Cresol sulfate] | 3.44 | 2 |  | 
COc1ccccc1C(=O)O [o-Anisic acid] |  |  | 31.4 | 
Cc1ccccc1OS(=O)(=O)O [o-Cresol sulfate] | 3.38 | 1.93 |  | 
Cc1ccc(OC2OC(C(=O)O)C(O)C(O)C2O)cc1 (configuration not stated) [p-Cresol glucuronide] | 3.44 | 2.01 |  | 
Cc1ccc(OS(=O)(=O)O)cc1 [p-Cresol sulfate] | 3.38 | 1.99 |  | 
O=C(O)C(O)Cc1ccc(O)cc1 (configuration not stated) [p-Hydroxyphenyllactic acid] | 2.66 |  |  | LC retention time [2]: 2.73 min
O=C(O)CNCc1ccccc1O [salicylglycine] |  |  | 27.4 | 
